Results on nine molecules are retold here after PubChem BioAssay AID212 (DTP/NCI, 2004).

Each structure is given as a SMILES string. Several values for one entry are separate records, joined by “and”; a condition that tells them apart may be missing. Equal entries are not always repeated. Records with an inconclusive call do not appear.

The assay concerns BDF1 mice, colon carcinoma 38 sc, T/C %. Put plainly: NCI In Vivo Anticancer Drug Screen. Data for tumor model Colon Carcinoma 38 (subcutaneous) in B6D2F1 (BDF1) mice. To be noted: endpoint: median tumor weight (est.), higher = larger tumour. In outline: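 Transplantable tumor in mice; compound-treated vs vehicle-dosed controls. Measured survival or tumor size; value = T ÷ C.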

The mark [1] stands for this setting: dose: 6.25 mg/kg/injection, schedule: Q07DX002 (ip), vehicle: saline.
The mark [2] stands for this setting: dose: 12.5 mg/kg/injection, schedule: Q07DX003 (ip), vehicle: saline.
Setting [3] is: dose: 25.0 mg/kg/injection, schedule: Q07DX002 (ip), vehicle: saline.
The mark [4] stands for this setting: dose: 50.0 mg/kg/injection, schedule: Q07DX002 (ip), vehicle: saline.
Setting [5] is: dose: 50.0 mg/kg/injection, schedule: Q07DX003 (ip), vehicle: saline.
The mark [6] stands for this setting: dose: 100.0 mg/kg/injection, schedule: Q07DX003 (ip), vehicle: saline.
Where [7] appears, read: dose: 12.5 mg/kg/injection, schedule: Q07DX002 (ip), vehicle: saline.
[8] abbreviates: dose: 100.0 mg/kg/injection, schedule: Q07DX002 (ip), vehicle: Klucel (hydroxypropylcellulose) (HPC).
[9] abbreviates: dose: 200.0 mg/kg/injection, schedule: Q07DX002 (ip), vehicle: Klucel (hydroxypropylcellulose) (HPC).

Consider `c1cc2n(n1)CCN2`, for which the T/C was 76 % of control under setting [1]; 110 % of control under setting [2]; 86 % of control (dose: 25.0 mg/kg/injection, schedule: Q01DX005 (ip), vehicle: saline); 84 % of control (dose: 25.0 mg/kg/injection, schedule: Q04DX003 (ip), vehicle: saline); 94 % of control under setting [3]; 92 % of control (dose: 25.0 mg/kg/injection, schedule: Q07DX003 (ip), vehicle: saline). Also, the T/C is 36 % of control (dose: 50.0 mg/kg/injection, schedule: Q01DX005 (ip), vehicle: saline); 166 % of control under setting [4]; 74 % of control under setting [5]; 44 % of control (dose: 100.0 mg/kg/injection, schedule: Q01DX005 (ip), vehicle: saline); 42 % of control (dose: 100.0 mg/kg/injection, schedule: Q04DX003 (ip), vehicle: saline); 65 % of control under setting [6]. For the same molecule, the T/C is 47 % of control (dose: 200.0 mg/kg/injection, schedule: Q01DX005 (ip), vehicle: saline); 97 % of control (dose: 200.0 mg/kg/injection, schedule: Q04DX003 (ip), vehicle: saline); 66 % of control (dose: 200.0 mg/kg/injection, schedule: Q07DX003 (ip), vehicle: saline); 75 % of control (dose: 400.0 mg/kg/injection, schedule: Q04DX003 (ip), vehicle: saline); 56 % of control (dose: 400.0 mg/kg/injection, schedule: Q07DX003 (ip), vehicle: saline).

For `COC1=NCN=C2SC=C(N)N=C12`, the T/C reads like this: under setting [1], 102 % of control; under setting [7], 91 % of control; under setting [2], 104 % of control; under setting [3], 101 % of control; under setting [4], 85 % of control; under setting [5], 151 % of control. Further, the T/C under setting [6] is 154 % of control.

For `CC(C)[NH-].CC(C)[NH-].[Cl][Pt+2][Cl]`, the T/C runs as follows: (dose: 3.12 mg/kg/injection, schedule: Q07DX002 (ip), vehicle: dextrose) 15 % of control; (dose: 3.13 mg/kg/injection, schedule: Q07DX002 (ip), vehicle: dextrose) 122 % of control; (dose: 6.25 mg/kg/injection, schedule: Q07DX002 (ip), vehicle: dextrose) 77 % of control; (dose: 6.25 mg/kg/injection, schedule: Q07DX002 (ip), vehicle: other) 104 % of control; (dose: 12.5 mg/kg/injection, schedule: Q07DX002 (ip), vehicle: dextrose) 71 % of control; (dose: 12.5 mg/kg/injection, schedule: Q07DX002 (ip), vehicle: other) 53 % of control. The T/C was 79 % of control and 88 % of control (dose: 25.0 mg/kg/injection, schedule: Q07DX002 (ip), vehicle: dextrose); 84 % of control (dose: 25.0 mg/kg/injection, schedule: Q07DX002 (ip), vehicle: other); 58 % of control and 71 % of control (dose: 50.0 mg/kg/injection, schedule: Q07DX002 (ip), vehicle: dextrose); 122 % of control (dose: 50.0 mg/kg/injection, schedule: Q07DX002 (ip), vehicle: other); 52 % of control (dose: 100.0 mg/kg/injection, schedule: Q07DX002 (ip), vehicle: other).

For the molecule `Cc1ncc([N+](=O)[O-])n1CCO`, the T/C was 78 % of control (dose: 37.5 mg/kg/injection, schedule: Q01DX005 (ip), vehicle: Klucel (hydroxypropylcellulose) (HPC)); 88 % of control (dose: 37.5 mg/kg/injection, schedule: Q04DX003 (ip), vehicle: Klucel (hydroxypropylcellulose) (HPC)); 61 % of control (dose: 75.0 mg/kg/injection, schedule: Q01DX005 (ip), vehicle: Klucel (hydroxypropylcellulose) (HPC)); 121 % of control (dose: 75.0 mg/kg/injection, schedule: Q04DX003 (ip), vehicle: Klucel (hydroxypropylcellulose) (HPC)); 74 % of control (dose: 75.0 mg/kg/injection, schedule: Q07DX002 (ip), vehicle: Klucel (hydroxypropylcellulose) (HPC)); 83 % of control (dose: 150.0 mg/kg/injection, schedule: Q01DX005 (ip), vehicle: Klucel (hydroxypropylcellulose) (HPC)). Also, the T/C is 80 % of control (dose: 150.0 mg/kg/injection, schedule: Q04DX003 (ip), vehicle: Klucel (hydroxypropylcellulose) (HPC)); 156 % of control (dose: 150.0 mg/kg/injection, schedule: Q07DX002 (ip), vehicle: Klucel (hydroxypropylcellulose) (HPC)); 93 % of control (dose: 300.0 mg/kg/injection, schedule: Q01DX005 (ip), vehicle: Klucel (hydroxypropylcellulose) (HPC)); 75 % of control (dose: 300.0 mg/kg/injection, schedule: Q04DX003 (ip), vehicle: Klucel (hydroxypropylcellulose) (HPC)); 103 % of control (dose: 300.0 mg/kg/injection, schedule: Q07DX002 (ip), vehicle: Klucel (hydroxypropylcellulose) (HPC)); 105 % of control (dose: 600.0 mg/kg/injection, schedule: Q01DX005 (ip), vehicle: Klucel (hydroxypropylcellulose) (HPC)). For the same molecule, the T/C (dose: 600.0 mg/kg/injection, schedule: Q07DX002 (ip), vehicle: Klucel (hydroxypropylcellulose) (HPC)) was 99 % of control.

Consider `Nc1ncn(C2OC(CO)C(O)C2O)c(=O)n1` (configuration not stated), for which the T/C runs as follows: under setting [7], 69 % of control; (dose: 32.0 mg/kg/injection, schedule: Q07DX002 (ip), vehicle: saline) 19 % of control and 31 % of control; under setting [4], 80 % of control and 85 % of control and 97 % of control; (dose: 200.0 mg/kg/injection, schedule: Q07DX002 (ip), vehicle: saline with Tween-80) 88 % of control; (dose: 400.0 mg/kg/injection, schedule: Q07DX002 (ip), vehicle: saline with Tween-80) 61 % of control; (dose: 400.0 mg/kg/injection, schedule: Q07DX002 (ip), vehicle: saline) 62 % of control and 79 % of control and 82 % of control. Besides, the T/C was 95 % of control (dose: 800.0 mg/kg/injection, schedule: Q07DX002 (ip), vehicle: saline with Tween-80); 27 % of control (dose: 800.0 mg/kg/injection, schedule: Q07DX002 (ip), vehicle: saline); 55 % of control (dose: 1200.0 mg/kg/injection, schedule: Q07DX002 (ip), vehicle: saline with Tween-80).

As to `COC(=O)C[C@](O)(CCCC(C)(C)O)C(=O)O[C@@H]1C(OC)=C[C@]23CCCN2CCc2cc4c(cc2[C@H]13)OCO4`, the T/C is 93 % of control (dose: 0.25 mg/kg/injection, schedule: Q07DX003 (ip), vehicle: saline); 95 % of control (dose: 0.5 mg/kg/injection, schedule: Q07DX003 (ip), vehicle: saline); 64 % of control (dose: 1.0 mg/kg/injection, schedule: Q07DX003 (ip), vehicle: saline); 53 % of control (dose: 2.0 mg/kg/injection, schedule: Q07DX003 (ip), vehicle: saline).

For `CC(=O)OC1COC(NC(=O)N(CCCl)N=O)C(OC(C)=O)C1OC(C)=O` (configuration not stated), the T/C is 92 % of control (dose: 0.75 mg/kg/injection, schedule: Q07DX002 (ip), vehicle: saline with Tween-80); 84 % of control (dose: 1.5 mg/kg/injection, schedule: Q07DX002 (ip), vehicle: saline with Tween-80); 66 % of control (dose: 3.0 mg/kg/injection, schedule: Q07DX002 (ip), vehicle: saline with Tween-80); 92 % of control (dose: 6.0 mg/kg/injection, schedule: Q07DX002 (ip), vehicle: saline with Tween-80); 44 % of control (dose: 12.0 mg/kg/injection, schedule: Q07DX002 (ip), vehicle: saline with Tween-80).

For `CN(C)CCCOC(=O)Cc1cccc2c(=O)cc(-c3ccccc3)oc12`, the T/C runs as follows: under setting [8], 107 % of control; under setting [9], 81 % of control.

As to `O=C([CH-]C(=O)C(F)(F)F)c1ccccc1.O=C([CH-]C(=O)C(F)(F)F)c1ccccc1.O=C([CH-]C(=O)C(F)(F)F)c1ccccc1.O=C([CH-]C(=O)C(F)(F)F)c1ccccc1.[Eu+3].c1ccncc1`, the T/C (dose: 25.0 mg/kg/injection, schedule: Q07DX002 (ip), vehicle: Klucel (hydroxypropylcellulose) (HPC)) was 91 % of control; the T/C (dose: 50.0 mg/kg/injection, schedule: Q07DX002 (ip), vehicle: Klucel (hydroxypropylcellulose) (HPC)) was 88 % of control; the T/C under setting [8] is 76 % of control and 82 % of control; the T/C under setting [9] was 79 % of control and 88 % of control.
